Literature values in PubChem BioAssay AID977608.

Target: Cruzipain (Trypanosoma cruzi) (UniProt P25779)
Experiment: literature IC50 values for PDB complexes, PDB-derived complexes (AID 977608)
Conditions: PDB protein-ligand complexes, protein: cruzain, chain 3I06_A, PDB entry 3I06

IC50: 0.2 nM
SMILES: CCn1cnc2c(Nc3cc(F)cc(F)c3)nc(C=N)nc21
